From patent US20050152835A1, “Technetium-99M glucarate methods of use for monitoring tissues” (priority 2003, published 2005)

Assays:
[1] = molecular target: T1, adenosine A1 receptor (Rattus norvegicus, UniProt P25099); test: Adenosine receptor-mediated cardioprotection in rat hearts with ischemia-reperfusion, assessed by 99mTc-glucarate imaging; assay type: in vivo
T1 construct: from tissue; host or cells: living rat, heart (myocardium) in vivo
T1 sequence (P25099 1-326): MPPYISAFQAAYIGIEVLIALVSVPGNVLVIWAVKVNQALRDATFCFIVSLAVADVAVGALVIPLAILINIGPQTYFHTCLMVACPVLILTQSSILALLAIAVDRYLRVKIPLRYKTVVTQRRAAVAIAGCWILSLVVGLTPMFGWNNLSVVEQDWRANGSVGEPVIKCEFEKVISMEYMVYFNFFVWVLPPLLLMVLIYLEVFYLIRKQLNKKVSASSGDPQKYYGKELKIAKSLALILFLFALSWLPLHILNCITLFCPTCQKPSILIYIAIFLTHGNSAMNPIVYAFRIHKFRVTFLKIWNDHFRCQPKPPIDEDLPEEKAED
Experimental: Experimental groups in this example included: Group-I (IR30, n=11): Animals subjected to a treatment of 30-min regional myocardial ischemia and 30-min reperfusion by ligating and releasing the left coronary artery (LCA). Group-II: (IPC Group, n=6): Rats were preconditioned with a sequence of 6 cycles of 4-min LCA occlusion and 4-min re-flow; 10 min later, the rats underwent a 30-min LCA occlusion followed by 30-min re-flow. Group-III (CCPA, n=6): rat chests were opened for the equivalent time for IPC in Group-II. Ten minutes prior to 30-min LCA occlusion and 30-min reperfusion, CCPA (40 μg/kg) was intravenously injected with 5 cycles of 4-min infusion and 4-min no infusion. Group-IV (SPT, n=5): animals subjected to IPC as the protocol in Group-II, SPT (10 mg/kg) was intravenously infused 2-min before and during subsequent ischemia-reperfusion.
Treatments in this example consisted of control (IR30, n=8): no preconditioning; equivalent open-chest time; IPC (n=6): 4-min LCA occlusion, 4-min reflow, 5 cycles; CCPA (n=6): 4-min IV infusion, 4-min no infusion, 5 cycles; SPT (n=4): IPC first, SPT IV infusion 2 min before and during LCA occlusion and re-flow.

[2] = tested on: plasmocytoma (localized myeloma); test: Scintigraphy of a patient with plasmocytoma of T8; assay type: in vivo, human; conditions: for scan finding at diagnosis: patient with lytic lesion of T8, posterior view
Experimental: A patient complaining of invalidation pain in the spine (mid-thorax) for about two months. Peak of monoclonal IgG-k in serum. Bence-Jones protein in urine. Spine CT. lytic lesion of T8, with soft tissue infiltration. […] Uptake was obvious in the early images, 15 and 30 min p.i., late acquisition, 6 hr p.i., made the tracer uptake much more obvious.

[3] = tested on: MCF7/S tumor xenograft; test: FASTSPECT dynamic imaging and tumor washout kinetics, drug-sensitive xenograft; assay type: in vivo, SCID mice
Experimental: (§1) Tumor cell lines used. MCF7/S: Cells are parental, drug (doxorubicin) sensitive, breast carcinoma cells. MCF7/D40: Cells were generated in vitro by successive culturing parental MCF7 cells in slowly increasing concentrations of doxorubicin with a total selection time of 31 months. Twenty-eight SCID mice were studied. MCF7/S or MCF7/D40 tumors were grown for 10-14 days after subcutaneous injection of 1×10^6 cells into the right thigh. Groups of mice with the xenografted tumors included: (MCF7/S group: MIBI: n=9; GLA: n=8) and (MCF7/D40 group: MIBI: n=6; GLA: n=5).
(§2) The dynamic imaging system SPECT consisted of 24 small modular gamma cameras. Each modular camera consists of a 10 cm×10 cm NaI(Tl) scintillation crystal, 4 square (5 cm×5 cm) Hamamatsu photomultiplier tubes. The system included a cylindrical aperture with twenty four 1-mm diameter pinholes drilled in the aperture. A point source in the center of the field of view is projected simultaneously to the center of each camera. Total magnification is 3.5 in a 3.0 cm×3.2 cm×3.2 cm field of view. The spatial resolution of the system is about 1.0 mm, with a sensitivity of 13.3 cps/μCi.
(§3) ^99mTc-GLA or ^99mTc-MIBI (5-8 mCi, 185-296 MBq) was injected via a jugular vein catheter. Dynamic images were acquired for 2 hours. Twenty-four projections were obtained, one from each camera. Each scintillation event within the camera's NaI crystal was registered as the digitized outputs from the camera's four photomultiplier tubes. The four photomultiplier outputs were compared to a 20-bit look-up table derived from a calibration procedure that involved moving a collimated source across the camera face.
(§4) Tumor image reconstruction was performed using 100 iterations of the maximum-likelihood expectation-maximization (ML-EM) algorithm. Using SlicerDicer software, three-dimensional images were computed to provide images in a 33×49×49 voxels format, and generate tomographic transaxial, coronal and sagittal slices with one-pixel thickness (1.0 mm). Regions of interest (ROI) over the tumors were created and applied to the dynamic images for determining time-activity curves. The percent washout rate relative to the peak uptake of the tumors were calculated.

[4] = tested on: MCF7/D40 tumor xenograft; test: FASTSPECT dynamic imaging and tumor washout kinetics, drug-resistant (Pgp positive) xenograft; assay type: in vivo, SCID mice; conditions: for time window after injection in which tumor could be localized/visualized: then activity dropped to background
Experimental: as §1, §2, §3, §4

[5] = tested on: MCF7/S tumors; test: Biodistribution in mice bearing MCF7/S tumors; assay type: in vivo, SCID mice
Experimental: as §1, §3
(§5) Tumors and organs were harvested and counted in a dose calibrator. The percent injected dose per gram (% ID/g) was calculated. Membrane preparations made from MCF7/S and MCF7/D40 tumors were immunoblotted with the mouse monoclonal antibody C219 against Pgp followed by a secondary antibody, which was detected by chemiluminescence. […] No immunodetectable MDR1 Pgp was presented in MCF7/S cells.

[6] = tested on: MCF7/D40 tumors; test: Biodistribution in mice bearing MCF7/D40 tumors; assay type: in vivo, SCID mice
Experimental: as §1, §3, §5

[7] = tested on: breast cancer; conditions: cited from earlier work
[8] = tested on: MCF7/D40 cells; test: Drug resistance of MCF7/D40 cells relative to MCF7/S; assay type: cell-based, human
[9] = Table 2, MCF7/S mice, 2 hours after injection
[10] = Table 4 (Example 3), MCF7/S mice
[11] = Table 2, MCF7/D40 mice, 2 hours after injection
[12] = Table 4 (Example 3), MCF7/D40 mice

OC[C@H]1O[C@@H](n2cnc3c(NC4CCCC4)nc(Cl)nc32)[C@H](O)[C@@H]1O [CCPA, 2-chloro-N6-cyclopentyladenosine]
effect on cardioprotection of ischemic preconditioning (IPC) ([1]; 40 μg/kg i.v. instead of IPC, before 30-min LCA occlusion and 30-min reperfusion): simulated

Cn1c(=O)c2[nH]c(-c3ccc(S(=O)(=O)O)cc3)nc2n(C)c1=O [SPT, 8-(p-sulfophenyl)-theophylline]
effect on cardioprotection of ischemic preconditioning (IPC) ([1]; 10 mg/kg i.v. infusion after IPC, before and during ischemia-reperfusion): blocked

O.O.O=P([O-])([O-])CP(=O)([O-])[O-].[99Tc+4] [^99mTc-MDP]
scan finding at diagnosis [2]: focally increased uptake corresponding to T8 | scan finding after about 1 year of stabilization and external radiotherapy ([2]; posterior view): inhomogeneous tracer distribution, without clear focally increased uptake

[C-]#[N+]CC(C)(C)OC.[C-]#[N+]CC(C)(C)OC.[C-]#[N+]CC(C)(C)OC.[C-]#[N+]CC(C)(C)OC.[C-]#[N+]CC(C)(C)OC.[C-]#[N+]CC(C)(C)OC.[Tc] [^99mTc-sestamibi, reference compound]
two-hour fractional washout (% peak activity) [3]: 50.2±5.3% | time after injection until which tumor stayed visualized/detectable ([3]; FASTSPECT, 120 min acquisition): 120 min | two-hour fractional washout (% peak activity) [4]: 71.7±1.7% | time window after injection in which tumor could be localized/visualized [4]: 2 to 4 min | time window after injection in which tumor could be localized/visualized ([4]; listed as 99mTc-MIBI): 2 to 3 min | Biodistribution, blood [5, 9]: 0.06 ± 0.01 % ID/gm | Biodistribution, heart [5, 9]: 10.61 ± 0.89 % ID/gm | Biodistribution, kidneys [5, 9]: 21.32 ± 2.03 % ID/gm | Biodistribution, liver [5, 9]: 7.02 ± 1.01 % ID/gm | Biodistribution, lung [5, 9]: 0.95 ± 0.16 % ID/gm | Biodistribution, muscle [5, 9]: 1.37 ± 0.12 % ID/gm | Biodistribution, tumor [5, 9]: 0.64 ± 0.07 % ID/gm | Biodistribution, blood [5, 10]: 0.06 ± 0.01 % ID/g | Biodistribution, heart [5, 10]: 10.61 ± 0.89 % ID/g | Biodistribution, kidneys [5, 10]: 21.32 ± 2.03 % ID/g | Biodistribution, liver [5, 10]: 7.02 ± 1.01 % ID/g | Biodistribution, lung [5, 10]: 0.95 ± 0.16 % ID/g | Biodistribution, muscle [5, 10]: 1.37 ± 0.12 % ID/g | Biodistribution, tumor [5, 10]: 0.64 ± 0.07 % ID/g | Tumor/Blood ratio [5, 10]: 13.97 ± 2.89 | Tumor/Muscle ratio [5, 10]: 0.48 ± 0.05 | Biodistribution, blood [6, 11]: 0.07 ± 0.01 % ID/gm | Biodistribution, heart [6, 11]: 9.78 ± 1.65 % ID/gm | Biodistribution, kidneys [6, 11]: 17.71 ± 3.13 % ID/gm | Biodistribution, liver [6, 11]: 7.67 ± 1.52 % ID/gm | Biodistribution, lung [6, 11]: 0.61 ± 0.12 % ID/gm | Biodistribution, muscle [6, 11]: 1.09 ± 0.32 % ID/gm | Biodistribution, tumor [6, 11]: 0.27 ± 0.05 % ID/gm | Biodistribution, blood [6, 12]: 0.07 ± 0.01 % ID/g | Biodistribution, heart [6, 12]: 9.84 ± 1.39 % ID/g | Biodistribution, kidneys [6, 12]: 19.63 ± 3.48 % ID/g | Biodistribution, liver [6, 12]: 8.29 ± 1.43 % ID/g | Biodistribution, lung [6, 12]: 0.61 ± 0.10 % ID/g | Biodistribution, muscle [6, 12]: 1.08 ± 0.27 % ID/g | Biodistribution, tumor [6, 12]: 0.27 ± 0.05 % ID/g | Tumor/Blood ratio [6, 12]: 3.93 ± 0.41 | Tumor/Muscle ratio [6, 12]: 0.31 ± 0.05 | scan finding at diagnosis [2]: negative for bone marrow infiltration | negative predictive value ([7]; in vivo): 83.4% | overall institutional sensitivity for breast cancer detection ([7]; in vivo): 75.4% | overall institutional specificity for breast cancer detection ([7]; in vivo): 82.7% | positive predictive value ([7]; in vivo): 74.5% | sensitivity for tumors under 1 cm in size ([7]; tumors under 1 cm): 48.2%

COc1cccc2c1C(=O)c1c(O)c3c(c(O)c1C2=O)C[C@@](O)(C(=O)CO)C[C@@H]3O[C@H]1C[C@H](N)[C@H](O)[C@H](C)O1 [doxorubicin]
resistance of MCF7/D40 compared to MCF7/S [8]: 40 fold
